From patent publication US12662490B2, “Heterocyclic compounds” (Hoffmann-La Roche Inc., priority 2019, dated 2026)
pIC50: −log10 of the molar value.

Molecular target: T1, MAGL (Homo sapiens, UniProt Q99685)
T1 sequence (Q99685 1-303): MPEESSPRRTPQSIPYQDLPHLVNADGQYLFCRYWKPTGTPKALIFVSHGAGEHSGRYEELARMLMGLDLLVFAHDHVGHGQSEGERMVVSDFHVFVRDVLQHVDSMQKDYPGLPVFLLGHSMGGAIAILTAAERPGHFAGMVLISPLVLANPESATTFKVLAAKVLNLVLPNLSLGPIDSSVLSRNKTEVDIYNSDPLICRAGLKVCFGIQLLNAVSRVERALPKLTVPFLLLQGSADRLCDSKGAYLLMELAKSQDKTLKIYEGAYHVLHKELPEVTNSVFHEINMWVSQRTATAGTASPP
Assay: 2-AG assay (MAGL inhibitory activity; hydrolysis of 2-arachidonoylglycerol to arachidonic acid followed by mass spectrometry)
Format: biochemical
Settings: 15 min preincubation at RT, 8 μM 2-arachidonoylglycerol, 30 min at RT, RapidFire MS readout
In short: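 Compounds (final 12.5 μM to […], 3-fold steps) preincubated 15 min at RT with MAGL ([…]) in 50 mM TRIS, 1 mM EDTA, Tween buffer. Reaction started with 8 μM 2-arachidonoylglycerol, run 30 min at RT, quenched with ACN containing d8-arachidonic acid. Arachidonic acid quantified by RapidFire SPE-triple quadrupole MS (negative ESI), activity from arachidonic acid/d8 ratio.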

| Compound | pIC50 |
| --- | --- |
| COc1cccc(C(=O)N2CCN3C[C@@](O)(c4nc5ccccc5[nH]4)OC[C@@H]3C2)c1Cl (single isomer, unassigned) [Example 60] | 6.02 |
| O=C(c1cnc2[nH]ncc2c1Cl)N1CCN2C[C@@H](c3ccc(F)c(Cl)c3)OC[C@@H]2C1 [Example 8, [(3R,9aS)-3-(3-chloro-4-fluoro-phenyl)-3,4,6,7,9,9a-hexahydro-1H-pyrazino[2,1-c][1,4]oxazin-8-yl]-(4-chloro-1H-pyrazolo[3,4-b]pyridin-5-yl)methanone] | 6.15 |
| COc1cccc(C(=O)N2CCN3C[C@](O)(c4ccc(F)c(Cl)c4)OC[C@H]3C2)c1Cl [Example 46, [(3S,9aR)-3-(3-chloro-4-fluoro-phenyl)-3-hydroxy-1,4,6,7,9,9a-hexahydropyrazino[2,1-c][1,4]oxazin-8-yl]-(2-chloro-3-methoxy-phenyl)methanone] | 6.75 |
| COc1cccc(C(=O)N2CCN3C[C@@H](c4ccc(F)c(Cl)c4)OC[C@]3(C)C2)c1Cl (stereo in doubt) [Example 32, (2-chloro-3-methoxy-phenyl)-[(rel-3R,9aS)-3-(3-chloro-4-fluoro-phenyl)-9a-methyl-1,3,4,6,7,9-hexahydropyrazino[2,1-c][1,4]oxazin-8-yl]methanone] | 6.48 |
| COc1ccc(F)c(C(=O)N2CCN3C[C@@H](c4cc(Cl)c[nH]c4=O)OC[C@@H]3C2)c1Cl [Example 147, 3-[(3R,9aS)-8-(2-chloro-6-fluoro-3-methoxy-benzoyl)-3,4,6,7,9,9a-hexahydro-1H-pyrazino[2,1-c][1,4]oxazin-3-yl]-5-chloro-1H-pyridin-2-one] | 6.41 |
| O=C(c1cccc(-c2cccnn2)c1Cl)N1CCN2C[C@@H](c3ccc(F)c(Cl)c3)OC[C@@H]2C1 [Example 31, [(3R,9aS)-3-(3-chloro-4-fluoro-phenyl)-3,4,6,7,9,9a-hexahydro-1H-pyrazino[2,1-c][1,4]oxazin-8-yl]-(2-chloro-3-pyridazin-3-yl-phenyl)methanone] | 6.76 |
| COc1cccc(C(=O)N2CCN3C[C@@](O)(c4cc(Cl)cc(-c5cnco5)c4)OC[C@@H]3C2)c1Cl [Example 154, [(3R,9aS)-3-(3-chloro-5-oxazol-5-yl-phenyl)-3-hydroxy-1,4,6,7,9,9a-hexahydropyrazino[2,1-c][1,4]oxazin-8-yl]-(2-chloro-3-methoxy-phenyl)methanone] | 6.11 |
| O=C(c1cccc(-c2c[nH]nc2F)c1Cl)N1CCN2C[C@@H](c3ccc(C(F)(F)F)nn3)OC[C@@H]2C1 [Example 97, [(3S,9aS)-3-[6-(trifluoromethyl)pyridazin-3-yl]-3,4,6,7,9,9a-hexahydro-1H-pyrazino[2,1-c][1,4]oxazin-8-yl]-[2-chloro-3-(3-fluoro-1H-pyrazol-4-yl)phenyl]methanone] | 6.36 |
| COc1cccc(C(=O)N2CCN3C[C@@H](c4cccc(F)c4F)OC[C@@H]3C2)c1Cl [Example 149, [(3R,9aS)-3-(2,3-difluorophenyl)-3,4,6,7,9,9a-hexahydro-1H-pyrazino[2,1-c][1,4]oxazin-8-yl]-(2-chloro-3-methoxy-phenyl)methanone] | 6.33 |
| Cc1cncnc1-c1cccc(C(=O)N2CCN3C[C@@H](c4ccc(F)c(Cl)c4)OC[C@@H]3C2)c1Cl [Example 35, [(3R,9aS)-3-(3-chloro-4-fluoro-phenyl)-3,4,6,7,9,9a-hexahydro-1H-pyrazino[2,1-c][1,4]oxazin-8-yl]-[2-chloro-3-(5-methylpyrimidin-4-yl)phenyl]methanone] | 5.96 |
| COc1cccc(C(=O)N2CCN3C[C@H](c4cc(C)c(Cl)cn4)OC[C@@H]3C2)c1Cl [Example 84, (2-chloro-3-methoxyphenyl)((3R,9aS)-3-(5-chloro-4-methylpyridin-2-yl)hexahydropyrazino[2,1-c][1,4]oxazin-8(1H)-yl)methanone] | 6.48 |

These reach a higher pIC50. Values come first.

| pIC50 | Compound |
| --- | --- |
| 6.85 | O=C(c1cc(F)cc(-c2c[nH]nc2F)c1Cl)N1CCN2C[C@@H](c3cc(Cl)c[nH]c3=O)OC[C@@H]2C1 [Example 133, 3-[(3R,9aS)-8-[2-chloro-5-fluoro-3-(3-fluoro-1H-pyrazol-4-yl)benzoyl]-3,4,6,7,9,9a-hexahydro-1H-pyrazino[2,1-c][1,4]oxazin-3-yl]-5-chloro-1H-pyridin-2-one] |
| 7.84 | O=C(c1cccc(-c2ccc(=O)[nH]c2)c1Cl)N1CCN2C[C@@H](c3ccc(F)c(Cl)c3)OC[C@@H]2C1 [Example 106, 5-[3-[(3R,9aS)-3-(3-chloro-4-fluoro-phenyl)-3,4,6,7,9,9a-hexahydro-1H-pyrazino[2,1-c][1,4]oxazine-8-carbonyl]-2-chloro-phenyl]-1H-pyridin-2-one] |
| 7.58 | COc1ccccc1-c1cccc(C(=O)N2CCN3C[C@@H](c4ccc(F)c(Cl)c4)OC[C@@H]3C2)c1Cl [Example 23, [(3R,9aS)-3-(3-chloro-4-fluoro-phenyl)-3,4,6,7,9,9a-hexahydro-1H-pyrazino[2,1-c][1,4]oxazin-8-yl]-[2-chloro-3-(2-methoxyphenyl)phenyl]methanone] |
| 7.12 | COc1cccc(C(=O)N2CCN3C[C@H](c4ccc(Br)cn4)OC[C@H]3C2)c1Cl (racemic) [Example 53, (2-chloro-3-methoxy-phenyl)-[rac-(3R,9aR)-3-(5-bromo-2-pyridyl)-3,4,6,7,9,9a-hexahydro-1H-pyrazino[2,1-c][1,4]oxazin-8-yl]methanone] |
| 7.49 | Cc1cnccc1-c1cccc(C(=O)N2CCN3C[C@@H](c4ccc(F)c(Cl)c4)OC[C@@H]3C2)c1Cl [Example 28, [(3R,9aS)-3-(3-chloro-4-fluoro-phenyl)-3,4,6,7,9,9a-hexahydro-1H-pyrazino[2,1-c][1,4]oxazin-8-yl]-[2-chloro-3-(3-methyl-4-pyridyl)phenyl]methanone] |
| 7.07 | COc1cccc(C(=O)N2CCN3C[C@@H](c4ccc(F)c(Cl)c4)OC[C@@H]3C2)c1F [Example 9, [(3R,9aS)-3-(3-chloro-4-fluoro-phenyl)-3,4,6,7,9,9a-hexahydro-1H-pyrazino[2,1-c][1,4]oxazin-8-yl]-(2-fluoro-3-methoxy-phenyl)methanone] |
| 7.33 | O=C(c1cccc(-c2c[nH]nc2F)c1Cl)N1CCN2C[C@@H](c3cc(Cl)c[nH]c3=O)OC[C@@H]2C1 [Example 77, 3-[(3R,9aS)-8-[2-chloro-3-(3-fluoro-1H-pyrazol-4-yl)benzoyl]-3,4,6,7,9,9a-hexahydro-1H-pyrazino[2,1-c][1,4]oxazin-3-yl]-5-chloro-1H-pyridin-2-one] |
| 7.30 | O=C(c1cccc(-c2cnn[nH]2)c1Cl)N1CCN2C[C@@H](c3ccc(F)c(Cl)c3)OC[C@@H]2C1 [Example 44, [(3R,9aS)-3-(3-chloro-4-fluoro-phenyl)-3,4,6,7,9,9a-hexahydro-1H-pyrazino[2,1-c][1,4]oxazin-8-yl]-[2-chloro-3-(1H-triazol-5-yl)phenyl]methanone] |
| 6.88 | O=C(c1cccc(OC(F)F)c1Cl)N1CCN2C[C@@H](c3ccc(F)c(Cl)c3)OC[C@@H]2C1 [Example 25, [(3R,9aS)-3-(3-chloro-4-fluoro-phenyl)-3,4,6,7,9,9a-hexahydro-1H-pyrazino[2,1-c][1,4]oxazin-8-yl]-[2-chloro-3-(difluoromethoxy)phenyl]methanone] |
| 7.80 | O=C(c1cccc(-c2cn[nH]c2)c1Cl)N1CCN2C[C@@](O)(c3ccc(C(F)(F)F)nc3)OC[C@@H]2C1 [Example 82, [(3R,9aS)-3-hydroxy-3-[6-(trifluoromethyl)-3-pyridyl]-1,4,6,7,9,9a-hexahydropyrazino[2,1-c][1,4]oxazin-8-yl]-[2-chloro-3-(1H-pyrazol-4-yl)phenyl]methanone] |
| 7.09 | O=C(c1cccc(-c2c[nH]nc2F)c1)N1CCN2C[C@@](O)(c3ccc(F)c(F)c3)OC[C@@H]2C1 [Example 93, [(3R,9aS)-3-(3,4-difluorophenyl)-3-hydroxy-1,4,6,7,9,9a-hexahydropyrazino[2,1-c][1,4]oxazin-8-yl]-[3-(3-fluoro-1H-pyrazol-4-yl)phenyl]methanone] |
| 8.24 | COc1ccc(F)c(C(=O)N2CCN3C[C@@H](c4ccc(F)c(Cl)c4)OC[C@@H]3C2)c1Cl [Example 111, [(3R,9aS)-3-(3-chloro-4-fluoro-phenyl)-3,4,6,7,9,9a-hexahydro-1H-pyrazino[2,1-c][1,4]oxazin-8-yl]-(2-chloro-6-fluoro-3-methoxy-phenyl)methanone] |
| 7.25 | Cc1cc(-c2cccc(C(=O)N3CCN4C[C@@H](c5ccc(F)c(Cl)c5)OC[C@@H]4C3)c2Cl)cc(=O)[nH]1 [Example 123, 4-[3-[(3R,9aS)-3-(3-chloro-4-fluoro-phenyl)-3,4,6,7,9,9a-hexahydro-1H-pyrazino[2,1-c][1,4]oxazine-8-carbonyl]-2-chloro-phenyl]-6-methyl-1H-pyridin-2-one] |
| 6.87 | COc1cccc(C(=O)N2CCN3CC(c4ccc5c(c4)CC5)OCC3C2)c1Cl (mixture of isomers) [Example 47, [3-(3-bicyclo[4.2.0]octa-1,3,5-trienyl)-3,4,6,7,9,9a-hexahydro-1H-pyrazino[2,1-c][1,4]oxazin-8-yl]-(2-chloro-3-methoxy-phenyl)methanone] |
| 7.80 | COc1ccc(F)c(C(=O)N2CCN3C[C@@](O)(c4ccc(F)c(Cl)c4)OC[C@@H]3C2)c1Cl [Example 116, [(3R,9aS)-3-(3-chloro-4-fluoro-phenyl)-3-hydroxy-1,4,6,7,9,9a-hexahydropyrazino[2,1-c][1,4]oxazin-8-yl]-(2-chloro-6-fluoro-3-methoxy-phenyl)methanone] |
